Experiments:
[1] = test system: skin of cubital fossa of healthy female panelists; test: Evaluation of moisture retention function (1): continuous application, skin conductivity (SKICON-200); type: in vivo, human
Protocol: Change in the moisture retention function by continuous use was examined for the evaluation of the skin quality-improving effect of Compositions (1)-(8) prepared in Examples 1-8. The compositions are applied to the test part/cubital fossa of 4 healthy female panelists in 23-28 years old in an amount of 2 μl/cm^2 twice a day in the morning and evening for 3 weeks or 2 months. Moisture content in the test part before the application of the cosmetic composition was measured in the morning with the elapse of time. The probe was contacted vertically on the test part, and the skin conductivity (=moisture content) was assayed with SKICON-200 (manufactured by IBS) as a measuring machine. When the measured value is high, it means that the moisture content is high. Change in the skin conductivity (relative conductivity) on the test part was calculated according to the following formula 3, as a relative value to the change in the conductivity on the non-treated part. [formula]

[2] = test system: Fibroblast derived from human neonate; test: Collagen synthesis promotion activity in human fibroblast (3H-glycine incorporation, collagenase digestion); type: cell-based; conditions: for Collagen Synthetic Promotion Activity: 72 hours, relative to control (0 mM = 100); for Collagen synthetic promotion activity (in words): human fibroblast
Protocol: Assay of synthetic collagen was conducted by the following method according to “Experimental Method of Collagen” (Written by Nagai, et al., Kodansha Scientific).
Fibroblast derived from human neonate (Sanko Junyaku Co., Ltd.) was cultivated in DMEM medium [Virology, 8, 396 (1959)] containing 10% fetal bovine serum under conditions of 5% CO2 at 37° C. by the stationary phase. ^3H marked glycine and a test compound was added thereto, and further cultivated for 72 hours. DMEM medium was prepared by mixing Dulbecco's Modified Eagle's Medium “Nissui” (2) (manufactured by Nissui Pharmaceutical) with 4 mmol/L glutamine, an optimum dose of sodium hydrogencarbonate, 10 mmol/L HEPES, 50 U/ml penicillin G potassium, 50 μg/ml streptomycin and 10% fetal bovine serum.
To the resultant culture broth was added 500 μmol/L phenylmethanesulfonyl fluoride (PMSF), and the cells and medium were recovered, crashed with a sonicater and the protein was extracted.
To the extract were added 100 μmol/L bovine serum albumin (BSA) and 10% trichloroacetic acid (TCA), and the resultant mixture was centrifuged at 3000 rpm for 5 minutes to recover the precipitate.
To the precipitate was added 0.2 mol/L sodium hydroxide at a density of 8 μl per 1 cm^2 of the bottom area of culture vessel used for said cultivation, and the resultant mixture was neutralized with an equivalent amount of 1 mol/L phosphate buffer.
To 100 μl of the resultant protein solution were added 25 mmol/L calcium chloride (10 μmol/L), 62.5 mmol/L N-ethylmaleimide (20 μmol/L) and 20 units of collagenase (manufactured by Wako Pure Chemical Industries, Ltd.; for analyzing the collagen), and the resultant mixture was allowed to react at 37° C. for 90 minutes.
The reaction mixture was filtered with an ultrafilter (molecular weight: 10,000), and the protein fraction of the filtrate was subjected to radiation activity (CDP) assay, which was assigned as freshly prepared collagen. The radiation activity (NCDP) of the non-filtered protein fraction was assayed, and collagen synthetic ratio was calculated according to the following formula 1.
Relative collagen synthetic promotion activity (change in the collagen synthesis) was calculated according to the following formula 2, comparing with the relative value of the collagen synthetic ratio of the test compounds against control. [formula] [formula]

[3] = test system: skin of cubital fossa of healthy female panelists; test: Evaluation of moisture retention function (2): single application, skin conductivity; type: in vivo, human
Protocol: Concentration dependency on moisture retention effect of N-Acetyl-Hyp was evaluated by the single application. The moisture retention was assayed on the test part/cubital fossa of 12 healthy female panelists in 23-32 years old, and each of the test compositions was applied thereto in an amount of 2 μl/cm^2 and allowed to leave. Three hours later, the moisture content of the test part was measured, and the moisture retention effect was evaluated in terms of the relative conductivity when the moisture content before the application was defined as 100%.

mouse epidermal cells = test: Mouse epidermal cell proliferation activity (MTT); type: cell-based, C3H mouse; conditions: for Epidermal Cell Proliferation Activity: 6 days, 0 μM = 100
Protocol: Epidermis was peeled from 3 days old C3H mouse according to Method of Tanigaki, et al., [The Japanese Journal of Dermatology, 1145-1152 (1989)].
The epidermis was treated with 0.25% trypsin and centrifuged at 1500 rpm for 5 minutes to obtain the cells. The cells were inoculated onto DMEM medium containing 10% fetal bovine serum and cultivated at 37° C. for 1 day to give the mouse epidermal cells.
The mouse epidermal cells were cultivated on MCDB 153 medium free of serum containing the test compound (Hyp or N-Acetyl-Hyp) for 6 days, mixed with 1/10 volume of 5 mg/ml MTT reagent in phosphate buffer (pH 7.4, free of calcium and magnesium), and then cultivated in an atmosphere of 5% CO2 at 37° C. for 4 hours. After removing the medium, MTT formazan in the cell was extracted with isopropanol containing 0.4 mol/L hydrochloric acid, and the absorbance at 570 nm was measured in comparison with that of 630 nm.

[4] = test system: epidermal keratinized cells derived from human neonate; test: Human epidermal cell proliferation activity (MTT method); type: cell-based; conditions: for Epidermal Cell Proliferation Activity: 4 days, 0 mM = 100
Protocol: The human epidermal cell proliferation activity was assayed according to MTT method [Cell Culture III, 4477-4482 (1984)] by incorporating 3-(4,5-dimethylthiazol-2-yl)-2,5-diphenyltetrazolium bromide (MTT) into cells and measuring the resultant MTT formazan by colorimetry at the wave length of 570 nm (Reference, 650 nm).
That is, epidermal keratinized cells derived from human neonate (Sanko Junyaku Co., Ltd.) was cultivated in KGM medium (Sanko Junyaku Co., Ltd.) in an atmosphere of 5% CO2 at 37° C. by the stationary phase, mixed with Hyp and N-Acetyl-Hyp and cultivated for 4 days. Then, the culture broth was mixed with 1/10 volume of 5 mg/ml MTT reagent in a phosphate buffer (pH 7.4, free of calcium and magnesium), and cultivated in an atmosphere of 5% CO2 at 37° C. for 4 hours. After removing the medium, MTT formazan in the cell was extracted with isopropanol containing 0.4 mol/L hydrochloric acid, and the absorbance at 570 nm was measured in comparison with that of 630 nm.

| SMILES | Moisture retention improving effect compared with collagen [1] | Skin moisture content / moisture retention function on continuous application (in words) [1] | Collagen Synthetic Promotion Activity ([2]; 0.1 mM test compound) | Collagen Synthetic Promotion Activity ([2]; 1 mM test compound) | Collagen synthetic promotion activity (in words) [2] | Relative Conductivity ([3]; 1% N-Acetyl-Hyp, single application 2 μl/cm2, three hours later, before application = 100%) [%] | Relative Conductivity ([3]; 3% N-Acetyl-Hyp, single application, three hours later) [%] | Relative Conductivity ([3]; 5% N-Acetyl-Hyp, single application, three hours later) [%] | Relative Conductivity ([3]; 10% N-Acetyl-Hyp, single application, three hours later) [%] | Moisture retention effect by single treatment (in words) ([3]; single treatment) | Epidermal proliferation activity (in words) (mouse epidermal cells) | Epidermal Cell Proliferation Activity (mouse epidermal cells; 1 μM) | Epidermal Cell Proliferation Activity (mouse epidermal cells; 3 μM) | Epidermal Cell Proliferation Activity (mouse epidermal cells; 10 μM) | Epidermal cells proliferation activity (in words) [4] | Epidermal Cell Proliferation Activity ([4]; 10 mM) | Epidermal Cell Proliferation Activity ([4]; 100 mM) | Concentration dependence of proliferation activity [4] |
| --- | --- | --- | --- | --- | --- | --- | --- | --- | --- | --- | --- | --- | --- | --- | --- | --- | --- | --- |
| CC(=O)N1C[C@H](O)C[C@H]1C(=O)O [N-Acetyl-Hyp, N-acetyl-trans-4-hydroxy-L-proline] | an improving effect exceeding that of collagen was observed | an improvement in the moisture retention function was observed | 121.1 | 119.7 | observed | 100 | 129 | 186 | 189 | concentration dependent-moisture retention effect | found | 110.7 | 118.2 | 121.9 | observed | 108.7 | 85.9 |  |
| O=C(O)[C@@H]1C[C@@H](O)CN1 [Hyp, trans-4-hydroxy-L-proline] |  | an improvement in the moisture retention function was observed | 108.3 | 117.1 | observed |  |  |  |  |  | found | 88.6 | 107.5 | 126 | observed | 111.6 | 135.1 | Proliferation activity depending on the concentration was found |

Reference: patent US6692754B1, “Cosmetic composition” (Kyowa Hakko Kogyo Co., Ltd., priority 1999, dated 2004)
